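Compound exposure: 48 hours, 5 concentrations, 96-well plates. GI50 is the concentration that inhibits growth by half.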 Active and inactive are the calls of the source. No stated cut-off is given here; in the data, active = GI50 up to about 1.1 µM and inactive = higher.
Columns and labels:
Assay in all cases: NCI tumour cell line growth inhibition, 48 h
[1] = tested on: A549
[2] = tested on: CAKI-1
[3] = tested on: DU-145
[4] = tested on: EKVX
[5] = tested on: HCT-15
[6] = tested on: HL-60
[7] = tested on: IGROV-1
[8] = tested on: KM12
[9] = tested on: LOX IMVI
[10] = tested on: MDA-MB-231
[11] = tested on: MDA-N
[12] = tested on: MOLT-4
[13] = tested on: NCI-H226
[14] = tested on: OVCAR-4
[15] = tested on: RPMI-8226
[16] = tested on: RXF 393
[17] = tested on: SN12C
[18] = tested on: SNB-19
[19] = tested on: SNB-75
[20] = tested on: T47D

CC(NC(=O)C(Cc1ccc(OC(=O)c2ccccc2)cc1)NC(=O)OC(C)(C)C)C(=O)NCC(=O)NC(Cc1ccccc1)NC(=O)OCc1ccccc1 (stereo not given)
GI50 [1]: > 100 µM (inactive) | GI50 [2]: > 100 µM (inactive) | GI50 [3]: > 100 µM (inactive) | GI50 [4]: > 100 µM (inactive) | GI50 [5]: > 100 µM | GI50 [6]: > 100 µM (inactive) | GI50 [7]: > 100 µM (inactive) | GI50 [8]: > 100 µM (inactive) | GI50 [9]: > 100 µM (inactive) | GI50 [10]: > 100 µM (inactive) | GI50 [11]: > 100 µM (inactive) | GI50 [12]: 62.7 µM (inactive) | GI50 [13]: > 100 µM (inactive) | GI50 [14]: 15.8 µM (inactive) | GI50 [15]: 50.6 µM (inactive) | GI50 [16]: > 100 µM (inactive) | GI50 [17]: > 100 µM (inactive) | GI50 [18]: > 100 µM (inactive) | GI50 [19]: > 100 µM (inactive) | GI50 [20]: > 100 µM (inactive)

Cc1c(-c2ccccc2)cc(O)c2nc3ccccc3n12
GI50 [1]: 14.5 µM (inactive) | GI50 [2]: 74.1 µM (inactive) | GI50 [3]: > 100 µM (inactive) | GI50 [4]: > 100 µM (inactive) | GI50 [5]: 6.32 µM | GI50 [6]: 4.97 µM (inactive) | GI50 [7]: 39.5 µM (inactive) | GI50 [8]: 15.6 µM (inactive) | GI50 [9]: 4.99 µM (inactive) | GI50 [10]: 5.61 µM (inactive) | GI50 [11]: 46.8 µM (inactive) | GI50 [12]: 8.28 µM (inactive) | GI50 [13]: > 100 µM (inactive) | GI50 [14]: 9.68 µM (inactive) | GI50 [15]: 7.43 µM (inactive) | GI50 [16]: 83.6 µM (inactive) | GI50 [17]: > 100 µM (inactive) | GI50 [18]: 96.8 µM (inactive) | GI50 [19]: 7.4 µM (inactive) | GI50 [20]: > 100 µM (inactive)

COc1cc(-c2coc3c(OC)c(OC4OC(CO)C(O)C(O)C4O)c(OC)cc3c2=O)cc(OC)c1C (stereo not given)
GI50 [1]: 7.13 µM (inactive) | GI50 [2]: 14.7 µM (inactive) | GI50 [3]: 8.41 µM (inactive) | GI50 [4]: 11.8 µM (inactive) | GI50 [5]: 3.66 µM | GI50 [6]: 4.53 µM (inactive) | GI50 [7]: 4.65 µM (inactive) | GI50 [8]: 4.79 µM (inactive) | GI50 [9]: 3.37 µM (inactive) | GI50 [10]: 15.1 µM (inactive) | GI50 [11]: 2.21 µM (inactive) | GI50 [12]: 5.9 µM (inactive) | GI50 [13]: 25.7 µM (inactive) | GI50 [14]: 13.1 µM (inactive) | GI50 [15]: 4.54 µM (inactive) | GI50 [16]: 2.56 µM (inactive) | GI50 [17]: 4.07 µM (inactive) | GI50 [18]: 6.81 µM (inactive) | GI50 [19]: 6.22 µM (inactive) | GI50 [20]: 9.14 µM (inactive)

O=C1OC(C2Cc3ccccc3C2=O)c2ccccc21 (stereo not given)
GI50 [1]: > 100 µM (inactive) | GI50 [2]: > 100 µM (inactive) | GI50 [3]: > 100 µM (inactive) | GI50 [4]: > 100 µM (inactive) | GI50 [5]: > 100 µM | GI50 [6]: > 100 µM (inactive) | GI50 [7]: > 100 µM (inactive) | GI50 [8]: > 100 µM (inactive) | GI50 [9]: 99.1 µM (inactive) | GI50 [10]: > 100 µM (inactive) | GI50 [11]: > 100 µM (inactive) | GI50 [12]: > 100 µM (inactive) | GI50 [13]: > 100 µM (inactive) | GI50 [14]: > 100 µM (inactive) | GI50 [15]: > 100 µM (inactive) | GI50 [16]: > 100 µM (inactive) | GI50 [17]: > 100 µM (inactive) | GI50 [18]: > 100 µM (inactive) | GI50 [19]: > 100 µM (inactive) | GI50 [20]: > 100 µM (inactive)

O=C1NCC2(CCN(Cc3ccccc3)CC2)N1
GI50 [1]: > 100 µM (inactive) | GI50 [2]: > 100 µM (inactive) | GI50 [3]: > 100 µM (inactive) | GI50 [4]: > 100 µM (inactive) | GI50 [5]: > 100 µM | GI50 [6]: > 100 µM (inactive) | GI50 [7]: > 100 µM (inactive) | GI50 [8]: > 100 µM (inactive) | GI50 [9]: > 100 µM (inactive) | GI50 [10]: > 100 µM (inactive) | GI50 [11]: > 100 µM (inactive) | GI50 [12]: > 100 µM (inactive) | GI50 [13]: > 100 µM (inactive) | GI50 [14]: > 100 µM (inactive) | GI50 [15]: > 100 µM (inactive) | GI50 [16]: > 100 µM (inactive) | GI50 [17]: > 100 µM (inactive) | GI50 [18]: > 100 µM (inactive) | GI50 [19]: > 100 µM (inactive) | GI50 [20]: > 100 µM (inactive)

Cc1cnc(/C=N\NC(N)=S)c2cccc(N)c12
GI50 [1]: 2.58 µM (inactive) | GI50 [2]: 0.516 µM (active) | GI50 [3]: 0.411 µM (active) | GI50 [4]: 1.1 µM (active) | GI50 [5]: 0.78 µM | GI50 [6]: 0.3 µM (active) | GI50 [7]: 1.75 µM (inactive) | GI50 [8]: 1.9 µM (inactive) | GI50 [9]: 0.445 µM (active) | GI50 [10]: 1.52 µM (inactive) | GI50 [11]: 0.767 µM (active) | GI50 [12]: 0.34 µM (active) | GI50 [13]: 1.39 µM (inactive) | GI50 [14]: 1.95 µM (inactive) | GI50 [15]: 0.714 µM (active) | GI50 [16]: 0.728 µM (active) | GI50 [17]: 0.434 µM (active) | GI50 [18]: 1.3 µM (inactive) | GI50 [19]: 0.553 µM (active) | GI50 [20]: 0.497 µM (active)

N#Cc1ccc(NC(=O)C(CC(=O)OCc2ccccc2)NC(=O)OCc2ccccc2)cc1 (stereo not given)
GI50 [1]: > 10 µM (inactive) | GI50 [2]: > 10 µM (inactive) | GI50 [3]: 3.72 µM (inactive) | GI50 [4]: > 10 µM (inactive) | GI50 [5]: > 10 µM | GI50 [6]: > 10 µM (inactive) | GI50 [7]: > 10 µM (inactive) | GI50 [8]: > 10 µM (inactive) | GI50 [9]: > 10 µM (inactive) | GI50 [10]: > 10 µM (inactive) | GI50 [11]: > 10 µM (inactive) | GI50 [12]: > 10 µM (inactive) | GI50 [13]: > 10 µM (inactive) | GI50 [14]: > 10 µM (inactive) | GI50 [15]: > 10 µM (inactive) | GI50 [16]: > 10 µM (inactive) | GI50 [17]: > 10 µM (inactive) | GI50 [18]: > 10 µM (inactive) | GI50 [19]: > 10 µM (inactive) | GI50 [20]: > 10 µM (inactive)

CCC(c1ccc(OC)cc1)C1NC(=S)NC1=O (stereo not given)
GI50 [1]: > 50 µM (inactive) | GI50 [2]: > 50 µM (inactive) | GI50 [3]: > 50 µM (inactive) | GI50 [4]: 34.2 µM (inactive) | GI50 [5]: > 50 µM | GI50 [6]: 12.4 µM (inactive) | GI50 [7]: > 50 µM (inactive) | GI50 [8]: > 50 µM (inactive) | GI50 [9]: > 50 µM (inactive) | GI50 [10]: > 50 µM (inactive) | GI50 [11]: > 50 µM (inactive) | GI50 [12]: 35.5 µM (inactive) | GI50 [13]: > 50 µM (inactive) | GI50 [14]: > 50 µM (inactive) | GI50 [15]: > 50 µM (inactive) | GI50 [16]: > 50 µM (inactive) | GI50 [17]: > 50 µM (inactive) | GI50 [18]: > 50 µM (inactive) | GI50 [19]: > 50 µM (inactive) | GI50 [20]: > 50 µM (inactive)

O=c1[nH]nc(-c2ccccc2)n1-c1ccncc1
GI50 [1]: > 100 µM (inactive) | GI50 [2]: > 100 µM (inactive) | GI50 [3]: > 100 µM (inactive) | GI50 [4]: > 100 µM (inactive) | GI50 [5]: > 100 µM | GI50 [6]: > 100 µM (inactive) | GI50 [7]: > 100 µM (inactive) | GI50 [8]: > 100 µM (inactive) | GI50 [9]: > 100 µM (inactive) | GI50 [10]: > 100 µM (inactive) | GI50 [11]: > 100 µM (inactive) | GI50 [12]: > 100 µM (inactive) | GI50 [13]: > 100 µM (inactive) | GI50 [14]: > 100 µM (inactive) | GI50 [15]: > 100 µM (inactive) | GI50 [16]: > 100 µM (inactive) | GI50 [17]: > 100 µM (inactive) | GI50 [18]: > 100 µM (inactive) | GI50 [19]: > 100 µM (inactive) | GI50 [20]: > 100 µM (inactive)

Reference: ChEMBL document CHEMBL1201862, “PubChem BioAssay data set” (2004)
